The source of these data is patent publication US8946189B2, “Transplants” (priority 2007, dated 2015).

Several values for one entry are separate records, joined by “and”; a condition that tells them apart may be missing. Identical values can stand only once. Entries after “also recorded” stand apart in the source; their conditions may differ.

Series [1] has as its system NK(2) and NK(3) receptors. Particulars: vs NK(1); cited from earlier work.
For another series, the target named is human NK(1) receptor (Homo sapiens, UniProt P25103). As to conditions: cited from earlier work.
Chain of human NK(1) receptor (P25103 whole entry): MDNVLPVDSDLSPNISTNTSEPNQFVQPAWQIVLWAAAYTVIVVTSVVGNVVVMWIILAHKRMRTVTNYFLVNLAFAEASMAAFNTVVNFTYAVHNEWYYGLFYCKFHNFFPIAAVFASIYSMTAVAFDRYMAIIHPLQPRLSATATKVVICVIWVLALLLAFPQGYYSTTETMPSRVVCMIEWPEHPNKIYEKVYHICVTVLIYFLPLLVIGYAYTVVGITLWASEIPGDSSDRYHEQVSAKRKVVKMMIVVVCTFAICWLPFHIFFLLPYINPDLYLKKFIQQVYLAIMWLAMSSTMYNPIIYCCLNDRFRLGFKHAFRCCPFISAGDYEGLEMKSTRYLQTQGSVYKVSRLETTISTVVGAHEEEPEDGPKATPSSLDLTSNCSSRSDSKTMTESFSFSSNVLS
The conditions of series [2]: oral and/or intravenous, 10, 25, 50 and 100 mg/kg body weight; cited from earlier work.
Series [3] relates to isolated rat aortic rings. Briefly: Organ bath tension of isolated rat aortic rings (intact and denuded) precontracted with norepinephrine. In kind it is cell-based. Particulars: for Tension of aortic rings: after 0.3 uM norepinephrine.
The conditions of series [4]: cited from earlier work.
The test system of series [5] is vascular smooth muscle cells. As to conditions: cited from earlier work.
The conditions of series [6]: in vivo; cited from earlier work.
Series [7] relates to human saphenous vein rings and rat aortic rings. It is filed as cell-based.

On to `Cc1cccc(C)c1NC(=O)C[C@H]1CCN(C(=O)c2cc(C(F)(F)F)cc(C(F)(F)F)c2)[C@@H](Cc2ccccc2)C1.O=C(O)C[C@H](O)C(=O)O` (relative stereo) [R116301, (2R-trans)-4-[1-[3,5-bis(trifluoromethyl)benzoyl]-2-(phenylmethyl)-4-piperidinyl]-N-(2,6-dimethylphenyl)-1-acetamide (S)-Hydroxybutanedioate], for which, in series [1], the “Selectivity toward NK(2) and NK(3) receptors” value is “over 200 fold”. In addition, the Ki on human NK(1) receptor is 0.45 nM.

`NC(=O)c1ncn([C@@H]2O[C@H](CO)[C@@H](O)[C@H]2O)c1N` [Acadesine, 5-amino-4-imidazole carboxamide ribonucleoside]: the Safety in humans entry in series [2] is “safe in humans”.

For `Nc1ncnc2c1ncn2[C@@H]1O[C@H](CO)[C@@H](O)[C@H]1O` [Adenosine, 6-amino-9-β-D-ribofuranosyl-9H-purine], the results for the “Relaxation of denuded rings as percent of the relaxation of intact rings” value in series [3] (400 uM) and in series [3] (500 uM) were 35% and 44%, respectively. Also, the “Greater falls in tension than lidocaine alone” value in series [3] (at 400 and 500 uM) was “about 30%”. Also, the “Concentration at which tension begins to decrease by over 5% relative to the precontracted state” value in series [3] (denuded rings) turned out to be 300 µM; in series [3] (intact rings), 100 µM. The “Tension expressed as a percent of baseline” value in series [3] (denuded rings, 10 uM) was 100%; in series [3] (denuded rings, 50 uM) it was 100% and 99%; in series [3] (denuded rings, 100 uM), 99% and 98%; in series [3] (denuded rings, 200 uM), 95% and 93%; in series [3] (denuded rings, 300 uM), 88%; in series [3] (intact rings, 10 uM) it was 99%. The “Tension expressed as a percent of baseline” value in series [3] (intact rings, 50 uM) was found to be 96%; in series [3] (intact rings, 100 uM) it was 89%; in series [3] (intact rings, 200 uM), 76%; in series [3] (intact rings, 300 uM), 61%; in series [3] (intact rings, 400 uM) it was 48%; in series [3] (intact rings, 500 uM), 39%. Also, the “Relaxation (percent tension decrease) relative to the precontracted state” value is 4% in series [3] (denuded rings, 200 uM); “no change” in series [3] (intact rings, 10 uM); “no change” in series [3] (intact rings, 50 uM). The “Extent of relaxation, percentage of precontracted norepinephrine tension” value was determined as 100.3 ± 0.2% in series [3] (denuded rings, drug 10 μM); 100.0 ± 0.4% in series [3] (denuded rings, drug 60 μM); 98.9 ± 0.5% in series [3] (denuded rings, drug 160 μM); 95.2 ± 1.1% in series [3] (denuded rings, drug 360 μM); 87.6 ± 2.3% in series [3] (denuded rings, drug 660 μM); 76.6 ± 3.4% in series [3] (denuded rings, drug 1060 μM). Also, the “Extent of relaxation, percentage of precontracted norepinephrine tension” value in series [3] (denuded rings, drug 1560 μM) was found to be 62.4 ± 4.2%; in series [3] (intact rings, drug 10 μM), 99.0 ± 0.3%; in series [3] (intact rings, drug 60 μM), 96.2 ± 0.7%; in series [3] (intact rings, drug 160 μM) it was 89.7 ± 1.5%; in series [3] (intact rings, drug 360 μM), 76.3 ± 3.1%; in series [3] (intact rings, drug 660 μM) it was 60.7 ± 4.2%. Besides, the “Extent of relaxation, percentage of precontracted norepinephrine tension” value in series [3] (intact rings, drug 1060 μM) was found to be 48.5 ± 3.9%; in series [3] (intact rings, drug 1560 μM), 38.9 ± 2.8%. In addition, the “Tension of aortic rings” value turned out to be 3.56 ± 0.08 g in series [3] (denuded rings, drug 10 μM); 3.55 ± 0.09 g in series [3] (denuded rings, drug 60 μM); 3.51 ± 0.09 g in series [3] (denuded rings, drug 160 μM); 3.39 ± 0.11 g in series [3] (denuded rings, drug 360 μM); 3.12 ± 0.14 g in series [3] (denuded rings, drug 660 μM); 2.73 ± 0.17 g in series [3] (denuded rings, drug 1060 μM). The “Tension of aortic rings” value in series [3] (denuded rings, drug 1560 μM) is reported as 2.23 ± 0.17 g; in series [3] (intact rings, drug 10 μM), 3.65 ± 0.12 g; in series [3] (intact rings, drug 60 μM), 3.54 ± 0.11 g; in series [3] (intact rings, drug 160 μM), 3.30 ± 0.09 g; in series [3] (intact rings, drug 360 μM) it was 2.81 ± 0.11 g; in series [3] (intact rings, drug 660 μM), 2.23 ± 0.14 g. In addition, the “Tension of aortic rings” value in series [3] (intact rings, drug 1060 μM) is recorded as 1.78 ± 0.13 g; in series [3] (intact rings, drug 1560 μM), 1.43 ± 0.08 g. Besides, the “Maximum relaxation relative to the precontracted state” value in series [3] (intact rings, at 500 uM) was found to be 48%. Moreover, the “Dependence of relaxation on an intact endothelium (denuded vs intact rings)” value in series [3] was “dependent on an intact endothelium”. In addition, the “Half life in the blood” value in series [4] was “about 10 seconds”.

In the case of `OCCN(CCO)c1nc(N2CCCCC2)c2nc(N(CCO)CCO)nc(N3CCCCC3)c2n1` [Dipyridamole], the “Inhibition of growth of vascular smooth muscle cells” value in series [5] (75 microg/mL (0.150 mM), Kim et al) is recorded as “approximately 90%”. The “Duration of sustained antiproliferative effects” value in series [5] (after drug exposure of only 15 min) was 48 h.

On to `CCN(CC)CC(=O)Nc1c(C)cccc1C` [Lidocaine], for which the “Concentration at which tension begins to decrease by over 5% relative to the precontracted state” value in series [3] (denuded rings) and in series [3] (intact rings) was 200 µM throughout. Also, the “Relaxation (percent tension decrease) relative to the precontracted state” value in series [3] (denuded rings, 200 uM) is 7%; in series [3] (intact rings, 10 uM), “no change”; in series [3] (intact rings, 50 uM), “no change”; in series [3] (intact rings, 100 uM), 5%; in series [3] (intact rings, 400 uM), 24%. The “Extent of relaxation, percentage of precontracted norepinephrine tension” value in series [3] (denuded rings, drug 10 μM) came out at 100.0 ± 0.4%; in series [3] (denuded rings, drug 60 μM) it was 99.4 ± 0.4%; in series [3] (denuded rings, drug 160 μM), 96.8 ± 0.7%; in series [3] (denuded rings, drug 360 μM), 93.4 ± 0.6%; in series [3] (denuded rings, drug 1060 μM), 82.4 ± 1.0%; in series [3] (denuded rings, drug 1560 μM), 75.8 ± 2.0%. In addition, the “Extent of relaxation, percentage of precontracted norepinephrine tension” value is reported as 99.7 ± 0.2% in series [3] (intact rings, drug 10 μM); 97.8 ± 0.7% in series [3] (intact rings, drug 60 μM); 96.2 ± 0.6% in series [3] (intact rings, drug 160 μM); 91.7 ± 0.5% in series [3] (intact rings, drug 360 μM); 84.4 ± 1.2% in series [3] (intact rings, drug 660 μM); 76.2 ± 3.5% in series [3] (intact rings, drug 1060 μM). In addition, the “Extent of relaxation, percentage of precontracted norepinephrine tension” value in series [3] (intact rings, drug 1560 μM) is 72.2 ± 3.5%. Also, the “Tension of aortic rings” value is given as 3.32 ± 0.12 g in series [3] (denuded rings, drug 10 μM); 3.31 ± 0.12 g in series [3] (denuded rings, drug 60 μM); 3.24 ± 0.12 g in series [3] (denuded rings, drug 160 μM); 3.11 ± 0.12 g in series [3] (denuded rings, drug 360 μM); 2.92 ± 0.12 g in series [3] (denuded rings, drug 660 μM); 2.75 ± 0.12 g in series [3] (denuded rings, drug 1060 μM). The “Tension of aortic rings” value in series [3] (denuded rings, drug 1560 μM) worked out at 2.53 ± 0.13 g; in series [3] (intact rings, drug 10 μM), 3.57 ± 0.08 g; in series [3] (intact rings, drug 60 μM), 3.50 ± 0.08 g; in series [3] (intact rings, drug 160 μM), 3.44 ± 0.07 g; in series [3] (intact rings, drug 360 μM), 3.28 ± 0.07 g; in series [3] (intact rings, drug 660 μM), 3.02 ± 0.07 g. The “Tension of aortic rings” value is on record as 2.73 ± 0.13 g in series [3] (intact rings, drug 1060 μM) and 2.59 ± 0.14 g in series [3] (intact rings, drug 1560 μM). Further, the “Tension expressed as a percent of baseline” value in series [3] (intact rings, 10 uM) stood at 100%; in series [3] (intact rings, 50 uM), 96%; in series [3] (intact rings, 100 uM), 96%; in series [3] (intact rings, 200 uM), 91%; in series [3] (intact rings, 300 uM), 84%; in series [3] (intact rings, 400 uM), 76%. For the same compound, the “Tension expressed as a percent of baseline” value in series [3] (intact rings, 500 uM) amounted to 72%. In addition, the “Relaxation relative to the relaxation of intact adenosine alone” value in series [3] (intact rings, 300 uM) stood at 14%; in series [3] (intact rings, 400 uM) it was 30%; in series [3] (intact rings, 500 uM), 30%. Also, the “Dependence of relaxation on an intact endothelium (denuded vs intact rings)” value in series [3] is given as “endothelium independent; also recorded: does not appear to be endothelium dependent”.

With `CSCC[C@@H]1NC(=O)[C@H](CC(C)C)NC(=O)[C@H](CCCNC(=N)N)NC(=O)[C@H](CO)NC(=O)[C@@H]2CSSC[C@@H]3NC(=O)[C@H](CO)NC(=O)CNC(=O)[C@H]([C@@H](C)O)NC(=O)[C@H](CSSC[C@H](N)C(=O)N[C@@H](CCCCN)C(=O)NCC(=O)N[C@@H](CCCCN)C(=O)NCC(=O)N[C@@H](C)C(=O)N[C@@H](CCCCN)C(=O)N2)NC(=O)[C@H](CSSC[C@@H](C(N)=O)NC(=O)[C@H](CCCCN)NC(=O)CNC(=O)[C@H](CO)NC(=O)[C@H](CCCNC(=N)N)NC3=O)NC(=O)[C@H](CC(=O)O)NC(=O)[C@H](Cc2ccc(O)cc2)NC1=O` [Omega conotoxin MVIIA], in series [6], the “Potency as an analgesic relative to morphine” value is given as 100-1000 fold.

Botulinum toxin type A: the “Relaxation of vascular smooth muscle” value in series [7] is “dose dependent relaxation”.

For orientation: Ki means a measure of affinity in units of concentration, obtained from inhibition or displacement.
